Data taken from patent US4333941A, “Inhibition of enveloped viruses with phenyl ketones” (The Dow Chemical Company, priority 1977, dated 1982).
pIC50: −log10 of the molar value. Structures can show the parent of a compound that is named as a salt. Where two headings read alike, the source gives them in different places.

Legend:
HSV-1 [1] = experiment: Inactivation of HSV-1, plaque assay on Vero or HeLa cells (Example 1); type: cell-based, herpes simplex virus type I; conditions: Human alphaherpesvirus 1, 1 h, one hour at 37° C., versus water control, read-out: Concentration Producing 50% Virus Inhibition
[2] = system: VSV (vesicular stomatitis virus); experiment: microbe, parasite or virus in culture; type: cell-based; conditions: 1 h
HSV-1 [3] = experiment: Inactivation of HSV-1 (Example 2); type: cell-based, herpes simplex virus type I; conditions: Human alphaherpesvirus 1, 1 h
[4] = system: SFV (semliki forest virus); experiment: Inactivation of SFV (Example 2); type: cell-based; conditions: 1 h, one hour exposure, read-out: concentration for fifty percent inactivation
influenza = experiment: Inactivation of influenza virus (Example 2); type: cell-based; conditions: unidentified influenza virus, 1 h
[5] = system: NDV (Newcastle's disease virus); experiment: organism not typed; type: cell-based; conditions: 1 h, read-out: concentration for fifty percent inactivation
rhinovirus = experiment: Inactivation of rhinovirus (Example 2); type: cell-based
poliovirus = type: cell-based; conditions: poliovirus (picorna viruses)
vaccinia virus = experiment: microbe, parasite or virus in culture; type: cell-based; conditions: Orthopoxvirus vaccinia, 1 h, read-out: concentration for 50 percent inactivation
HSV-1 [6] = conditions: guinea pig, in vivo
HSV-2 [7] = conditions: guinea pig, in vivo
mice = conditions: cited from earlier work
HSV-2 [8] = experiment: Inactivation of one strain of HSV-2 (Example 3); conditions: Human alphaherpesvirus 2, 1 h, read-out: concentration for ninety nine percent inactivation
HSV-1 [9] = experiment: Inactivation of two strains of HSV-1 (Example 3); conditions: Human alphaherpesvirus 1, 1 h, read-out: concentration for ninety nine percent inactivation
HSV-1, Stohr strain = experiment: In vivo treatment of HSV-1 skin infection in guinea pigs (Example 5); conditions: 2 percent in 5 percent ethanol, topical hourly
HSV-2 [10] = experiment: In vivo treatment of genital cutaneous mucosa infected with HSV-2 (Example 8); conditions: all the animals, including placebo and control
[11] = read-out: concentration for fifty percent inactivation

Compound `CCCCOc1ccc(C(=O)CCN2CCOCC2)cc1` has a pIC50 (HSV-1 [1]) of 3.90.

With `CCCCOc1ccc(C(=O)C(C)C[N+]2(C)CCCCC2)cc1` (stereo not drawn) [1-[2-(4-butoxybenzoyl)-2-methylethyl]-1-methyl-piperidinium iodide] the pIC50 (HSV-1 [1]) was under 3.12.

`CCCCOc1ccc(C(=O)CC[N+]2(C)CCCCC2)cc1` [1-[2-(4-butoxybenzoyl)-ethyl]-1-methyl piperidinium iodide] gave a pIC50 (HSV-1 [1]) of over 3.90.

`O=C(CCN1CCCCC1)c1ccc(Cl)c(Cl)c1` [3',4'-Dichloro-3-piperidino-propiophenone . HCl] gave a pIC50 (HSV-1 [1]) of over 3.90.

Compound `O=C(CCN1CCCCC1)c1cccc(Cl)c1` [3'-Chloro-3-piperidino-propiophenone . HCl] has a pIC50 (HSV-1 [1]) of 3.90.

Work on `CC(=O)C(CN1CCCCC1)c1ccccc1` (stereo not drawn) [3-Phenyl-4-piperidino-2-butanone . HCl] yielded a pIC50 (HSV-1 [1]) of 3.26.

Compound `CCCCOc1ccc(C(=O)CCN(CC)CC)cc1` [4'-Butoxy-3-diethylamino-propiophenone . HCl] has a pIC50 (HSV-1 [1]) of over 3.90.

Work on `CCOc1ccc(C(=O)CCN2CCCCC2)cc1` [4'-Ethoxy-3-piperidino-propiophenone . HCl] yielded a pIC50 (HSV-1 [1]) of 2.82.

For `CCCCCCOc1ccc(C(=O)CCN2CCCCC2)cc1` [4'-Hexyloxy-3-piperidino-propiophenone . HCl], the pIC50 (HSV-1 [1]) was over 3.90.

Compound `CC(C)COc1ccc(C(=O)CCN2CCCCC2)cc1` [4'-Isobutoxy-3-piperidino-propiophenone . HCl] has a pIC50 (HSV-1 [1]) of 3.70.

Compound `CCCOc1ccc(C(=O)CCN2CCCCC2)cc1` [4'-Propoxy-3-piperidino-propiophenone . HCl] has a pIC50 (HSV-1 [1]) of 3.40.

Work on `CCCCCCCCCCOc1ccc(C(=O)CCN2CCCCC2)cc1` [4'-n-Decyloxy-3-piperidino-propiophenone . HCl] yielded a pIC50 (HSV-1 [1]) of over 3.90.

`CCCCCCCCOc1ccc(C(=O)CCN2CCCCC2)cc1` [4'-n-Octyloxy-3-piperidino-propiophenone . HCl] gave a pIC50 (HSV-1 [1]) of over 3.90.

In the case of `COc1ccc(C(=O)CCN2CCCCC2)cc1` [4-Methoxy-3-piperidino propiophenone . HCl], the pIC50 (HSV-1 [1]) was 3.90.

With `CCCCOc1ccc(C(=O)CCN2CCCCC2)cc1` [Dyclonine . HCl, 4-n-butoxy-β-(1-piperidyl)-propiophenone hydrochloride] the pIC50 (HSV-1 [1]) was 3.90, the pIC50 [2, 11] was at least 3.00 and the killing at 500 µM ([2]; read-out: inactivation of VSV) was over 99%. The pIC50 (HSV-1 [3]; [11]) was at least 3.00, the killing at 500 µM (HSV-1 [3]; read-out: inactivation of HSV) was over 90% and the pIC50 [4] was at least 3.00. The pIC50 (influenza; [11]) was at least 3.00, the killing at 500 µM (influenza; read-out: inactivation of influenza virus) was about 80% and the pIC50 [5] was at least 3.00. The percent inactivated (rhinovirus) was “less than 50%”, the percent inactivated (poliovirus) was “less than 50%” and the pIC50 (vaccinia virus) was at least 2.70. For the same compound, the “Candida (yeast) infection” value (HSV-1 [6]) was “a Candida (yeast) infection developed”, the detrimental adverse reactions (HSV-2 [7]) was “No detrimental adverse reactions were observed” and the hyperkeratosis (HSV-2 [7]) was “mild hyperkeratosis noted in some of the animals”. The “acute LD50” value (mice; intraperitoneal injection) was 52.8 mg/kg, the “acute LD50” value (mice; intravenous) was 19.5 mg/kg and the IC99 (HSV-2 [8]) was under 1000 µM. For the same compound, the IC99 (HSV-1 [9]) was under 1000 µM, the “sites with herpes lesions” value (HSV-1, Stohr strain; 48 hours after inoculation, placebo 88 percent) was 31% of the sites and the “sites with herpes lesions” value (HSV-1, Stohr strain; by 72 hours) was 7% of the sites. For the same compound, the hyperkeratosis (HSV-2 [10]) was “hyperkeratosis was noted in all the animals”.

Work on `CCCCOc1cc(C(=O)OCCN(CC)CC)ccc1N` [benoxinate . HCl] yielded a pIC50 (HSV-1 [1]) of under 2.70.

Compound `CCOC(=O)c1ccc(N)cc1` [benzocaine] has a pIC50 (HSV-1 [1]) of under 2.70.

With `CCCCOc1cc(C(=O)NCCN(CC)CC)c2ccccc2n1` [dibucaine . HCl] the pIC50 (HSV-1 [1]) was 3.10.

`CCN(CC)CC(=O)Nc1c(C)cccc1C` [lidocaine . HCl] gave a pIC50 (HSV-1 [1]) of under 2.70.

Compound `CCOc1ccc(N=C(C)Nc2ccc(OCC)cc2)cc1` [phenacaine . HCl] has a pIC50 (HSV-1 [1]) of under 2.70.

For `CCCCOc1ccc(OCCCN2CCOCC2)cc1` [pramoxine . HCl], the pIC50 (HSV-1 [1]) was 3.17.

Compound `CCN(CC)CCOC(=O)c1ccc(N)cc1` [procaine . HCl] has a pIC50 (HSV-1 [1]) of under 2.70.

`CCCOc1ccc(C(=O)OCCN(CC)CC)cc1N` [proparacaine . HCl] showed a pIC50 (HSV-1 [1]) of under 2.70.

With `CCCCNc1ccc(C(=O)OCCN(C)C)cc1` [tetracaine . HCl] the pIC50 (HSV-1 [1]) was under 2.70.
